From patent US20220288052A1, “COMPOUND FOR COMBINATION TREATMENT” (priority 2019, published 2022)
Where two headings read alike, the source gives them in different places.

How the values were obtained:
DA transporter [1] = biological target: T1, DA transporter (Mus musculus, UniProt Q61327); experiment: In vivo ^3H-WIN 35.428 binding (DA transporter occupancy), PD/PK
T1 construct: in vivo DAT transporter occupancy (open bars) in mouse striatum; from tissue; host or cells: mouse striatum (in vivo; C57 mice in the MPTP model)
T1 sequence (Q61327 whole entry): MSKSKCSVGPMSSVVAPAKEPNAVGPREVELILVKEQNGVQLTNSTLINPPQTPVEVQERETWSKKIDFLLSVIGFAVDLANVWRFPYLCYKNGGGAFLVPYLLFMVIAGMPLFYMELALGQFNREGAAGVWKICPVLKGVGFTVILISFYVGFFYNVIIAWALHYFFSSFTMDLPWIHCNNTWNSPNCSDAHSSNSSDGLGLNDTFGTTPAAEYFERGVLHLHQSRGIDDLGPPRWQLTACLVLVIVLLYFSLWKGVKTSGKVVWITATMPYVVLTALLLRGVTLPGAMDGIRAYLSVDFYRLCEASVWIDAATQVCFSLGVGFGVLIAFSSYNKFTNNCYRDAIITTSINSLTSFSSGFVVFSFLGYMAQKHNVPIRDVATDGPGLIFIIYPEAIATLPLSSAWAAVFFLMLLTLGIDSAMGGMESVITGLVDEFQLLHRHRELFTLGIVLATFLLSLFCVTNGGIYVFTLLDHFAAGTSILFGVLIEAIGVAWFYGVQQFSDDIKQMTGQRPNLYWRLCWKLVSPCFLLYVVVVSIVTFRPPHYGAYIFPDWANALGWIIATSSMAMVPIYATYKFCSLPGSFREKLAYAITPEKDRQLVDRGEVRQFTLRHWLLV
Method: The relationship between brain concentrations of compound (I) and transporter occupancy was investigated in in vivo ^3H-WIN 35.428 binding in mice. A relationship between increasing plasma and brain concentrations with each increase in dose level, and a corresponding increase in CNS in vivo DA transporter occupancy 90 min post administration. In both cases there was a close correlation between plasma and brain concentrations and in vivo transporter occupancy in brain, the brain to plasma ratio was approximately 4 at 3, 10 and 30 mg/kg (FIG. 1). […] The inhibition of in vivo WIN binding was measured 90 min after p.o. administration of the compound.
(§1) The in vivo receptor occupancy (RO %) of compound (I) was calculated at the MED values (DOSE) in mFST and in the mouse motility test using the formula RO % (estimated)=DOSE 100/(ED50+DOSE). The calculations were based on ED50 values in ex vivo uptake of 5-HT and NA and WIN in vivo binding.
It is known that the critical factor for psychomimetic side effects of a dopaminergic drug is the speed of inhibition of the DA transporter rather than the increase in DA release per se.

DA transporter [2] = biological target: DA transporter (Rattus norvegicus, UniProt P23977); experiment: ^3H-uptake rat, DA transporter; assay type: biochemical
DA transporter (Rattus norvegicus, UniProt P23977), sequence (P23977 whole entry): as the sequence (Q61327 whole entry) above, with P21S, V57A, S194A, R600H, V619L counted along it
Description: (§2) Compound (I) has been characterized as a monoamine reuptake inhibitor, based on the profile in a series of functional assays (Table 2).

[3] = system: nialamide pre-treated mice; experiment: Nialamide-induced 5-HT syndrome (m5-HT); assay type: in vivo, mouse
Method: 50 mg/kg nialamide s.c. t=120 min. Compound (I) p.o. t=0. n=4.
Compound (I) was tested in a classical test often used to measure the ability of a compound to block the reuptake of 5-HT in vivo: nialamide-induced 5-HT syndrome (m5-HT). In addition, compound (I) was tested in a locomotor activity paradigm (mLA) as a measure of its ability to block the reuptake of DA and therefore induce motility. It is generally accepted that >60% DA transporter blockade is needed to induce increased motility in this test.

[4] = Metabolic stability in liver microsomes, guinea pig; assay type: in vitro ADME
Method: The metabolic stability of compound (I) was tested in liver microsomes from all in house available species at 1 and 5 μM. One metabolite of 16 mass units higher than parent, was found in all incubations, except with human liver microsomes.

[5] = Tissue distribution after single dose, rat; assay type: in vivo; settings: sc; for AUC(0-t): male, Wistar, rat 5 mg/kg s.c., read-out: AUC(0-24 h); for half-life: rat, male Wistar rats 5 mg/kg s.c., read-out: T½ (converted)
Method: Compound (I) was dosed to male Wistar rats 5 mg/kg s.c. Plasma was taken 0.5, 1, 2, 4, 6 and 24 post dose. Brain, liver and lung were taken 1, 4 and 24 hours post dose.
The plasma profile was again essentially the same as for the single dose study showing the same T½ of 0.8 h. AUC and T½ were calculated for plasma and organs, even though the data are very sparse for the organs.

C57 mice = experiment: Mouse tail suspension test (mTST); assay type: in vivo; settings: i.p. 30 min
Method: C57 males, 25-28 g, Taconic, 16/8-06. Mice acclimatized to ground floor 5 days before testing. Mice saline injected once a day twice before test day. 22° C., N=7-8.

Nicotinic α3β4 = Nicotinic α3β4 (Homo sapiens, UniProt P30926+P32297); experiment: Selectivity screen, Nicotinic α3β4; assay type: binding
Nicotinic α3β4, sequence (P32297 32-505): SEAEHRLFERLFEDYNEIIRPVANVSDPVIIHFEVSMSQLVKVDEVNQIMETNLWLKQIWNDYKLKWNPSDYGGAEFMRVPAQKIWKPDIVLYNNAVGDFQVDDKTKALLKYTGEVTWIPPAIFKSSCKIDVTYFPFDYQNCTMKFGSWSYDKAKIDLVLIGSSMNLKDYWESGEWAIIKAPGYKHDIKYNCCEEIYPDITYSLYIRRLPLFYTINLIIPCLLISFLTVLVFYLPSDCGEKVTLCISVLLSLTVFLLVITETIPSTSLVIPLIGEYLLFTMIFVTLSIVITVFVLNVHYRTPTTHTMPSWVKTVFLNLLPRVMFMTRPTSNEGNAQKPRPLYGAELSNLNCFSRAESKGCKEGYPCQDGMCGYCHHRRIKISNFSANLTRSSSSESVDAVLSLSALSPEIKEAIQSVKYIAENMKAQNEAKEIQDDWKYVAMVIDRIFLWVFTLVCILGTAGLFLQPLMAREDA
Nicotinic α3β4, sequence (P30926 22-498): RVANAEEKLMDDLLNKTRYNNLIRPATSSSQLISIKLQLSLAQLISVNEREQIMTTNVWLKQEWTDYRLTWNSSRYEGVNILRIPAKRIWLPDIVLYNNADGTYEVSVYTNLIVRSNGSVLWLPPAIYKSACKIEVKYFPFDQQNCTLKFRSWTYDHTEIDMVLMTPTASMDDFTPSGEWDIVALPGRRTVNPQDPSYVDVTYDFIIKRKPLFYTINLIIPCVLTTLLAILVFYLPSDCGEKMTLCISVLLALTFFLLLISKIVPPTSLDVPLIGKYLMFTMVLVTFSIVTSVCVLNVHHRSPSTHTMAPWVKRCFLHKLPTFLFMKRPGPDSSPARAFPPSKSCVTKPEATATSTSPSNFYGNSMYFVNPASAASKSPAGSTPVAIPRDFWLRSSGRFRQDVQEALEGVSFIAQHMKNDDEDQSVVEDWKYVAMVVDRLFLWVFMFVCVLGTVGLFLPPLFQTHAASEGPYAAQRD

NA transporter = NA transporter (Homo sapiens, UniProt P23975); experiment: ^3H-Nisoxetine binding, human
NA transporter, sequence (P23975 whole entry): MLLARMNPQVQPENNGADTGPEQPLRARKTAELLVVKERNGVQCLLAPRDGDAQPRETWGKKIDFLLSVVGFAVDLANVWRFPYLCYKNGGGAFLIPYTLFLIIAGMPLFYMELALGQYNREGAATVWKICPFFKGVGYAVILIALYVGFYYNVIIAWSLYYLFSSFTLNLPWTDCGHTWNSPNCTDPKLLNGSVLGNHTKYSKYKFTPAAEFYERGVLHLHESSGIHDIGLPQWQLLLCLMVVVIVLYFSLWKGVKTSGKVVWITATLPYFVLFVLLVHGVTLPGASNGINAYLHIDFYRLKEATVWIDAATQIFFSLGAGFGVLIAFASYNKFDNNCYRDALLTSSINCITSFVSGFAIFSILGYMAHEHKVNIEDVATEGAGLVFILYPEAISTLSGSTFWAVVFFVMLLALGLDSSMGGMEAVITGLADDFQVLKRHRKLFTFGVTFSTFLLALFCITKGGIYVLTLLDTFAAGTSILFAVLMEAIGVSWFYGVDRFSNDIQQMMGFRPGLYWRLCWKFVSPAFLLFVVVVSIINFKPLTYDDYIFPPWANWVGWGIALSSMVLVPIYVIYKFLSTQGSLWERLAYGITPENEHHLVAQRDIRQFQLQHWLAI
Description: as §2

[6] = Bioavailability study in mouse; assay type: in vivo
Description: Compound (I) is absorbed quickly.

5-HT transporter [7] = biological target: 5-HT transporter (Rattus norvegicus, UniProt P31652); experiment: ^3H-Citalopram binding, rat
5-HT transporter (Rattus norvegicus, UniProt P31652), sequence (P31652 whole entry): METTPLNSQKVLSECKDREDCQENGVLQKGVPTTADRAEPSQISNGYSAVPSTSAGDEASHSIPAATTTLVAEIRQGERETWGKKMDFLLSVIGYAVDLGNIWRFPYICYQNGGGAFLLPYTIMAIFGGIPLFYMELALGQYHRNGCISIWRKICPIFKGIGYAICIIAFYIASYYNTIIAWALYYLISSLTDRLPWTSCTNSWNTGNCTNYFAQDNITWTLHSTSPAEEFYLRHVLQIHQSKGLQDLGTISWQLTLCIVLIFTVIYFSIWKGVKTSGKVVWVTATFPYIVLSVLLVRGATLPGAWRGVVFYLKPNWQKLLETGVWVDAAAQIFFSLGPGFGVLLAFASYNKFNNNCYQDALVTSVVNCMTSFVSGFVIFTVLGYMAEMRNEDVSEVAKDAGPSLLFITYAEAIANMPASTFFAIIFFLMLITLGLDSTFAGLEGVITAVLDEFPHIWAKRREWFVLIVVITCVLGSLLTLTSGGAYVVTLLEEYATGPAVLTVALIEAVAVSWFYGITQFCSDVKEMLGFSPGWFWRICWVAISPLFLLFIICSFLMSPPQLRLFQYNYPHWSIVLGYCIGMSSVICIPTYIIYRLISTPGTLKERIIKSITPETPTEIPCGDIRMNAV
Description: as §2

Sigma σ1 = Sigma σ1 (Homo sapiens, UniProt Q99720); experiment: MDS LeadProfilingScreen, Sigma σ1; assay type: binding
Sigma σ1, sequence (Q99720 whole entry): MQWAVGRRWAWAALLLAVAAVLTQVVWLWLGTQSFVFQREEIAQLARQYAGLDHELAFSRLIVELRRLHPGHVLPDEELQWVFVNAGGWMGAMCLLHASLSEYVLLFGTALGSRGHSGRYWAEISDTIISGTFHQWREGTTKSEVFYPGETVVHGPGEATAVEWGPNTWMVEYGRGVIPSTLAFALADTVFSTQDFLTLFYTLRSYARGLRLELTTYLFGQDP

CYP 3A4 = CYP 3A4 (Homo sapiens, UniProt P08684); experiment: CYP450 inhibition, cocktail of selective substrates, 3A4; assay type: in vitro ADME; settings: CYP 3A4, Midazolam to 1′-hydroxymidazolam; read-out: IC50 of compound (I)
CYP 3A4, sequence (P08684 whole entry): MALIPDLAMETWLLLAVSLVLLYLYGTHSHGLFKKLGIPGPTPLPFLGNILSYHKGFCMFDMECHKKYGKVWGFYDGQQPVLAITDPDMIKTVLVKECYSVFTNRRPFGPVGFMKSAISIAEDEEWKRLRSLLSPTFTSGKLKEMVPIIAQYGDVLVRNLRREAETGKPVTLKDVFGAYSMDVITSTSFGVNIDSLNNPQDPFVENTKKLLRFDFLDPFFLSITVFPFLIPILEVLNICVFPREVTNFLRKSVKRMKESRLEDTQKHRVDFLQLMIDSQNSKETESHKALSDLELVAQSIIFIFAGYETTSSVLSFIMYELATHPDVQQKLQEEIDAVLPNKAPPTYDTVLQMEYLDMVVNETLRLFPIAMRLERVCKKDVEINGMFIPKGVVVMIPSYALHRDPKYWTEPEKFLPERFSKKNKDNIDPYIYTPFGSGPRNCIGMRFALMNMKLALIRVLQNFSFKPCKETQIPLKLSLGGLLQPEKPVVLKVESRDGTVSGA
Method: Compound (I) was tested for CYP450 inhibition using a cocktail of selective substrates. […] This might be addressed later in a clinical study.

[8] = Purity and stability study (solution, photo, oxidation, solid state); assay type: physicochemical
Method: A purity and stability study was performed on exo-7-(8-aza-bicyclo[3.2.1]oct-3-yloxy)-chromen-2-one (compound (I)) hydrochloride anhydrate, showing that the compound is chemically and thermodynamically stable as solid and in solution, but sensitive to light when in solution.

5-HT transporter [9] = biological target: T2, 5-HT transporter (Mus musculus, UniProt Q60857); experiment: Ex vivo 5-HT uptake in mice
T2 construct: from tissue; host or cells: tissue of dosed animals (ex vivo)
T2 sequence (Q60857 whole entry): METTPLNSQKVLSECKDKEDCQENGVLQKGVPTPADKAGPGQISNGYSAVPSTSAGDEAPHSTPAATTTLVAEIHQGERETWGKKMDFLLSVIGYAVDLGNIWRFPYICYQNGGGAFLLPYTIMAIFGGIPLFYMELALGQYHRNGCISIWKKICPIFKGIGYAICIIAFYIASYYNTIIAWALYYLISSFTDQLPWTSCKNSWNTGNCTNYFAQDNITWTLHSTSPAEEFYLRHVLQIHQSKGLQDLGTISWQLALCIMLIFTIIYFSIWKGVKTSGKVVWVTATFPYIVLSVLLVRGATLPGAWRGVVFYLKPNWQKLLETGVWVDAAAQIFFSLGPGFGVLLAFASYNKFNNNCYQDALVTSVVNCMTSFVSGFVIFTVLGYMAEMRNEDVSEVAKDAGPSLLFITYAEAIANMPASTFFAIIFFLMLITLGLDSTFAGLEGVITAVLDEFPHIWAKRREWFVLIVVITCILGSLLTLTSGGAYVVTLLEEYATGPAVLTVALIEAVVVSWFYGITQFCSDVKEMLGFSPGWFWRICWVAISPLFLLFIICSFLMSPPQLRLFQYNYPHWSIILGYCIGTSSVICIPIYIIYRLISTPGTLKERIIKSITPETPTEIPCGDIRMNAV
Method: as §1

[10] = estimated at MED in mFST (NMRI mice), DOSE 1 mg/kg
[11] = estimated at MED in mMotility, DOSE 10 mg/kg
[12] = female, NMRI, plasma, intravenous, 10 mg/kg
[13] = female, NMRI, plasma, po, 10 mg/kg p.o.

## O=c1ccc2ccc(O[C@@H]3C[C@H]4CC[C@@H](C3)N4)cc2o1 [Compound (I), exo-7-(8-aza-bicyclo[3.2.1]oct-3-yloxy)-chromen-2-one]
DA transporter [1]; [10]
  DA RO %: 9%
DA transporter [1]; [11]
  DA RO %: 50%
DA transporter [1]; mice, 20 mg/kg p.o.
  In vivo WIN binding time course: slow onset of DA transporter blockade in vivo
DA transporter [1]; mouse, brain, po, mice, 3, 10 and 30 mg/kg p.o., 90 min post administration, read-out: Brain to plasma ratio
  Kp at 1.5 h: ~4
DA transporter [1]; mouse, po, read-out: ED50 in WIN in vivo binding in mice
  ED50: 9.9 mg/kg
DA transporter [2]
  IC50: 0.26 µM
[3]; m5-HT, p.o. 0 min
  MED: 0.1 mg/kg
[3]; nialamide pre-treated mice
  Potency in 5-HT syndrome relative to the reference compounds tested: 100 times
[4]
  Stability at 1 μM: 98%
  Stability at 5 μM: 82%
[5]; Brain
  AUC(0-t): 3.19 µg·h/mL
  half-life: 216 min
[5]; Liver
  AUC(0-t): 0.493 µg·h/mL
[5]; Lung
  AUC(0-t): 17.6 µg·h/mL
  half-life: 156 min
[5]; Plasma
  AUC(0-t): 0.805 µg·h/mL
  half-life: 48 min
C57 mice
  MED: <5 mg/kg
Nicotinic α3β4
  Ki: 5.05 µM
Nicotinic α3β4; Nicotinic acetylcholine Ki versus hDAT Ki 155 nM
  Separation to transporter hDAT: x32
Nicotinic α3β4; Nicotinic acetylcholine Ki versus hNET Ki 594 nM
  Separation to transporter hNET: x8.5
Nicotinic α3β4; Nicotinic α3β4, Human, 10 μM
  inhibition at 10 µM: 57%
NA transporter
  Ki: 0.27 µM
[6]; 10 mg/kg i.v., 10 mg/kg
  T½ i.v.: 48 min
[6]; 10 mg/kg p.o., 10 mg/kg
  AUC(0-∞) p.o.: 2.308 µg·h/mL
[6]; [12]
  Vd: 3.5 L/kg
  clearance: 4.3 L/h/kg
[6]; female, NMRI, plasma, iv, 10 mg/kg, 10 mg/kg i.v., read-out: AUC(0-∞) i.v.
  AUC(0-inf): 2.31 µg·h/mL
[6]; female, NMRI, plasma, iv, 10 mg/kg, 10 mg/kg i.v., read-out: T½ i.v. (converted)
  half-life: 36 min
[6]; [13]
  Cmax: 1.09 µg/mL
  Tmax: 30 min
[6]; female, NMRI, plasma, po, 10 mg/kg, 10 mg/kg p.o., read-out: AUC(0-∞) p.o.
  AUC(0-inf): 1.72 µg·h/mL
[6]; female, NMRI, plasma, po, 10 mg/kg, 10 mg/kg p.o., read-out: T½ p.o. (converted)
  half-life: 66 min
[6]; plasma, oral, female NMRI mice, 10 mg/kg p.o. vs 10 mg/kg i.v.
  bioavailability: 74%
5-HT transporter [7]
  Ki: 0.00028 µM
Sigma σ1
  inhibition at 10 µM: 59%
CYP 3A4
  IC50: > 100 µM
[8]; Oxidation, 5% H2O2, 0.15 mM
  Compound (I), % left after 1 d at 40° C.: 83%
[8]; Photostability at pH 7.4
  Compound (I), % left after 3 h at 250 W/m^2: 11%
[8]; Solid state stability
  % left after 26 d at 40° C. 75% rel. humidity in open container: 100%
[8]; Stability at pH 1.0, 0.15 mM
  Compound (I), % left after 1 d at 40° C.: 100%
[8]; Stability at pH 7.4, 0.15 mM
  Compound (I), % left after 1 d at 40° C.: 100%
5-HT transporter [9]; [10]
  5-HT RO %: 34%
5-HT transporter [9]; [11]
  5-HT RO %: 84%
5-HT transporter [9]; mouse, po
  ED50: 1.9 mg/kg
